Source: patent US7786129B2, “Piperazine derivatives of dialkyl oxindoles” (Egis Gyogyszergyar Nyrt, priority 2004, dated 2010)
Marks after values point to notes of the source that are not given here.

Legend:
Male Mongolian gerbils = test: Neuroprotective effect in global ischemia test (bilateral carotid occlusion); format: in vivo, Mongolian gerbil; settings: gerbil
Experimental: Male Mongolian gerbils weighing 60-90 g were used as test animals. The test compounds were administered intraperitoneally at a dose of 30 mg/kg 45 min after surgery. Test substances were suspended in 0.4% methylcellulose solution. In diethylether narcosis, the right and left common carotid arteries were exposed through an anterior midline cervical incision and isolated from the vagus nerves and the surrounding tissues. Full arrest of carotid blood flow was achieved by tightening an aneurysm clip for 3 min. During surgery the body temperature of the animals was kept at the individual preoperative level (37.5±0.5° C.) with the help of a heating pad and a heating lamp.
4 days after the surgery the animals were anaesthetized with 60 mg/kg i.p nembutal (10 ml/kg) and perfused through the heart first with saline then with a fixative solution containing 0.1% glutaraldehyde, 4% paraformaldehyde and 0.2% picric acid in 0.1 M phosphate buffer (pH 7.4) for 30 min. The brain was removed from the skull and post fixed for at least 1 week at 4° C. in the same fixative solution.
Alternate coronal sections of 60 μm thickness were cut from different levels of the dorsal hippocampus by a microtome. The sections were repeatedly washed in 0.1 M phosphate buffer (pH 7.4) and stained by silver impregnation. The sections were stored twice in a preparatory solution (2% sodium hydroxide and 0.875% ammonium hydroxide solution) for 5 minutes, impregnated for 10 minutes in 0.875% ammonium hydroxide and 0.5% silver nitrate solution) and placed into a washing solution (0.5% sodium carbonate and 0.01% ammonium nitrate dissolved in a 29.1% aqueous ethanol solution) twice for 2 minutes and once for one minute. The slices were then developed in 9.9% ethanol solution containing 1.5% formaldehyde and 0.01% ammonium nitrate and fixed three times for 3 minutes in a 0.5% acetic acid solution. The stained slices were placed in 0.1M phosphate buffer (pH 7.4) and chrome gelatine, applied on plates, dehydrated and treated with xylol. The cover plates were fixed with DPX glue (Fluka).
The sections were examined under light microscopy and the overall neuronal damage in the hippocampal CA1 subfield in both hippocampi was scored on a 6-point scale: (O) undamaged, (1)—0-10%; (2)—10-30%; (3)—30-50%; (4)—50-70%; (5)—70-90%; (6)—90-100% cell loss. Group differences between drug-treated and vehicle-treated groups were statistically analysed by Mann-Whitney U-test.

[1] = system: dopamine release in the internal ear of guinea pig; test: Dopamine release in the internal ear (cochlear preparations, oxygen and glucose deprivation); settings: guinea pig cochlear preparation, second stimulation after oxygen and glucose deprivation, FIG. 1
Experimental: The study of the effect on the hearing impairment and tinnitus were performed in guinea pigs weighing 145-375 g (Toxicoop, Hungary) according to the method of Gáboiján et al. (Gáboiján, A., Lendvai, B, Vizi, E. S.: Neuroscience 90, p. 131 (1999)). The dopamine release in the internal ear, as a correlate of hearing impairment, was measured in samples from cochlear preparations (lateral olivocochlear efferents) with high-pressure liquid chromatography (HPLC). The samples were collected in every 3 minutes during 60 minutes (20 fractions). Electric field stimulation was generally applied during the 3rd and 13th fraction (S1, S2, 2 Hz, 360 shocks, 60 V; Grass Medical Instruments). In the respective experiments ischemia (oxygen and glucose deprivation, OGD) was mimicked by the perfusion of a buffer saturated with 100% N2 and containing sacharose instead of glucose. Results are expressed as a percent of dopamine release per fraction. Statistical analysis was performed by analysis of variance (ANOVA) followed by Tukey test.
From the thus-obtained results the effect of the compound of Example 76 on the dopamine release in the internal ear of guinea pig is shown (FIG. 1). The initial stimulation (SI) evoked considerable dopamine release. […] This effect can be interpreted as an inhibition of hearing impairment.

Male Wistar rats = test: Vogel's drinking conflict test; format: in vivo; settings: ip, 0.5 h, rat, i.p. 30 min prior to test, increase in tolerated shocks, read-out: MED
Experimental: The anxiolytic effect of the compounds according to the invention was investigated on rats according to Vogel's drinking conflict test and elevated plus-maze test (S. Pelow, P. Chopin, S. E. File, J. Briley: Neurosci. Methods 14, p. 149 (1985)).
Male Wistar rats weighing 160-180 g were used for the experiment. The animals were deprived of drinking water for 48 hours and fasted for 24 hours prior to test. The test compounds or vehicle were administered intraperitoneally, 30 min prior to test. […] Following every 20 licks electric shocks (0.7 mA) were applied through the drinking spout during the 5 min test period. The number of punished licks were recorded. The effect of the test compounds was expressed as % increase in numbers of tolerated shocks. Minimal effective doses (MED) were determined for each compound.

## CCC1(CCCCN2CCN(c3ccc(Cl)cc3)CC2)C(=O)Nc2ccccc21 (centres unmarked) [Example 76, 3-{4-[4-(4-Chlorophenyl)-piperazin-1-yl]-butyl}-3-ethyl-1,3-dihydro-2H-indol-2-one]
Male Mongolian gerbils; change of CA1 cell loss score vs. control, 30 mg/kg i.p.
  Effect (%): −52%
Male Mongolian gerbils; 30 mg/kg i.p. 45 min after surgery, scored 4 days after surgery on 6-point scale
  CA1 cell loss (score): 2.40* score
[1]
  dopamine release in the internal ear: the release stabilized at a significantly higher level
other
  melting point: 145 to 146 °C
Male Wistar rats
  minimal effective dose: 10 mg/kg
